Data taken from article PMC9499506, “TNF-α and IL-1β Modulate Blood-Brain Barrier Permeability and Decrease Amyloid-β Peptide Efflux in a Human Blood-Brain Barrier Model” (International Journal of Molecular Sciences, 2022).

Key:
Assay type in all cases: cell-based, human
BLECs [1] = assay: RT-qPCR of junctional protein mRNA in BLECs; conditions: normalized to cyclophilin A, 10 ng·mL^−1, 24 h; for VE-cadherin mRNA level versus control: ΔΔCt
Procedure: (§1) Each condition was studied in triplicate.
BLECs were washed twice with cold RH buffer, then lysed using RLT lysis buffer (Qiagen, Les Ulis, France). The cell lysates were extracted according to the manufacturer’s instructions “Qiagen RNeasy Mini kit”. Briefly, a volume of cell lysates was mixed with a volume of 70% (v/v) ethanol and placed in a column (Rneasy Mini kit, Qiagen, Les Ulis, France). A first centrifugation was performed to adsorb the RNAs to the column. A series of two rinses with buffer RW1 and a centrifugation (10.000 rpm, 30 s) were performed. Samples were treated with DNase in its RDD buffer for 20 min. Then, another succession of rinses (one with buffer RW1 and two with buffer RPE) and centrifugation (10.000 rpm, 30 s) were performed. Finally, water (RNAse Free) was added to the column to elute the RNAs by centrifugation (13.000 rpm, 2 min at 20 °C). The amount of extracted mRNAs was assayed by spectrophotometry (Synergy H1, Biotek, Colmar, France). Absorbances at 280 nm (proteins) and 260 nm (nucleic acids) were performed. The mRNA concentration was determined from the Beer-Lambert law and the mRNA purity of the sample was assessed with the Absorbance 260 nm/Absorbance 280 nm ratio. This ratio must be close to 2.1 to consider the sample to be with high purity. The mRNA samples were then stored at −80 °C.
Reverse transcription (RT) was performed on the samples containing the extracted mRNAs to obtain cDNAs. A total of 250 ng of mRNA was reverse-transcribed using iScriptTM reverse Transcription Supermix 5X (Biorad, Munich, Germany), containing reverse transcriptase, RNAse inhibitors, RNAse H, dNTPs (nucleoside triphosphates), oligonucleotides (dTs) (deoxy-thymine repeats) and random primers (hexamers of dNTPs randomly binding to mRNAs) and MgCl2). To each microtube, a volume of water (RNAse free) was added to obtain a final volume of 20 µL, then a reverse transcription cycle was performed in the thermal cycler (MJ Research): 5 min at 25 °C (hybridization), 30 min at 42 °C (reverse transcription) and 5 min at 85 °C (reverse transcription inactivation). The cDNA samples were then stored at −20 °C. For each reverse transcription and for each condition, an internal control was performed by adding iScriptTM No-RT control Supermix 5X (Biorad, Munich, Germany), a solution without the reverse transcriptase enzyme (NRT), instead of iScriptTM reverse Transcription Supermix 5X.
The qPCR was performed on a 96-well plate where each sample was deposited in triplicate. To perform qPCR, human-specific primer pairs were drawn for each gene of interest (Table 2).
An efficiency test and a melting curve were performed for each pair of primers used using the CFX Manager software (Biorad, Munich, Germany) allowing for the specificity and efficiency of the primers to be checked. A qPCR of the cDNAs obtained by RT-PCR was performed using the specific primers and a SsoFast^TM Evagreen SuperMix (Biorad, Munich, Germany) containing DNA polymerase, its cofactors, dNTPs and Evagreen® (a fluorochrome that binds to DNA during elongation). The amplification was carried out for 40 cycles with a hybridization temperature of 60 °C. The reaction was performed in a CFX96 Real-Time System thermal cycler (Biorad, Munich, Germany). Gene expression levels were assessed using the ΔΔCt method and normalized to a reference gene, cyclophilin A. The data were then plotted as a percentage against the control condition. Two controls were performed per primer pair: an NRT and a primer hybridization control (NTC), where the sample containing the cDNAs is replaced with water.

BLECs [2] = assay: Western immunoblotting of junctional proteins in BLECs; conditions: 10 ng·mL^−1, 24 h
Procedure: as §1
(§2) After 24 h of treatments with or without proinflammatory cytokines, BLECs were washed twice with cold RH buffer and scraped with 70 μL of RIPA 1X lysis buffer (10 mM Tris-Cl (pH 8.0), 1 mM EDTA, 0.5 mM EGTA, 1% Triton X-100, 0.1% sodium deoxycholate, 0.1% SDS, 140 mM NaCl) (Merck Millipore, Burlington, MA, USA) or UT4 lysis buffer (7M Urea, 2M Thiourea, 4% CHAPS), both supplemented with a cocktail of phosphatase and protease inhibitors (1% protease inhibitors cocktail #P8340; 1% phosphatase inhibitors cocktail 1 P2850; 1% phosphatase inhibitors cocktail 2 #P5726; 1% protease inhibitors cocktail #P8340) purchased from Sigma-Aldrich (Lyon, France). Then, a centrifugation at 10,000 rpm for 10 min at 4 °C was achieved to save the supernatant of the lysate. This was later sonicated two times for 5 s on ice. The concentration of the protein lysate was quantified using the Bradford method (#5000006; rad, Munich, Germany). The protein samples were then stored at −20 °C.
(§3) 20 μg of total protein was mixed with Laemmli 4X (#1610747; Biorad, Munich, Germany) supplemented with β-mercaptoethanol (Sigma-Aldrich, Germany). Depending on the protein target, details of the denaturation and reduction steps of the protein extract are described in Table 3. Then, the protein mixes were electrophoresed using Criterion™ TGX™ (Tris-Glycine eXtended) precast gels (Biorad, Munich, Germany) and subsequently electrotransferred to nitro-cellulose membranes (GE Healthcare, Munich, Germany). Once the previous step was completed, Tris-buffered saline 0.1% Tween 20 (TBST; 20 mM Tris-HCl, pH 8.0, 500 mM NaCl, 0.1% Tween 20) supplemented with 5% skimmed milk was added on membrane to block nonspecific binding sites for 1 h under agitation at RT. Membranes were incubated in the appropriate primary antibodies (as described in Table 3) and incubated at 4 °C overnight, except β-actin (20 min at RT).
(§4) The following morning, the membranes were rinsed with TBST three times for 5 min each under agitation, and then incubated with the horseradish peroxidase-conjugated secondary antibody anti-rabbit (1:8000, Dako/Agilent Technologies, Inc., Santa Clara, CA, USA) or secondary antibody anti-mouse (1:5000, Dako/Agilent Technologies, Inc., Santa Clara, CA, USA) for 1 h at RT. […] Quantification of the relative densities of bands was performed with TotalLab TL 100 1D Gel Analysis software (Nonlinear Dynamics, Newcastle, UK). The protein expression normalization was conducted with anti-β-actin. Studies were performed with at least three independent experiments, with at least two Western immunoblottings per experiment.

BLECs [3] = assay: Western immunoblotting of receptors/transporters involved in Aβ peptide transport in BLECs; conditions: 10 ng·mL^−1, 24 h; for downregulation of BCRP protein level compared to control / downregulation of LRP1 protein level compared to control: normalized to β-actin
Procedure: as §1, §2, §3, §4

| Substance | decrease of ZO-1 mRNA level compared to control (BLECs [1]) [%] | decrease of claudin-3 mRNA level compared to control (BLECs [1]) [%] | decrease of occludin mRNA level compared to control (BLECs [1]) [%] | decrease of tricellulin mRNA level compared to control (BLECs [1]) [%] | increase of claudin-5 mRNA expression compared to control (BLECs [1]) [%] | VE-cadherin mRNA level versus control (BLECs [1]) | Claudin-5 protein levels versus control (BLECs [2]) | decrease of ZO-1 protein expression compared to control (BLECs [2]; normalized to β-actin) [%] | decrease of claudin-3 protein level compared to control (BLECs [2]; normalized to β-actin) [%] | decrease of occludin protein level compared to control (BLECs [2]; normalized to β-actin) [%] | decrease of tricellulin protein level compared to control (BLECs [2]; normalized to β-actin) [%] | P-gp protein expression compared to control (BLECs [3]) | PICALM protein expression compared to control (BLECs [3]) | RAGE protein expression compared to control (BLECs [3]) | downregulation of BCRP protein level compared to control (BLECs [3]) [%] | downregulation of LRP1 protein level compared to control (BLECs [3]) [%] | VE-cadherin protein level versus control (BLECs [2]; normalized to β-actin) | ZO-1 protein level versus control (BLECs [2]; normalized to β-actin) | increase of Claudin-5 protein expression compared to control (BLECs [2]; normalized to β-actin) [%] |
| --- | --- | --- | --- | --- | --- | --- | --- | --- | --- | --- | --- | --- | --- | --- | --- | --- | --- | --- | --- |
| interleukin-1β [IL-1β] | 48.1 | 81.3 | 64.0 | 62.8 | 48.1 | lower | not reflected by a change in Claudin-5 protein levels | 26.4 | 73.1 | 33.5 | 51.0 | no significant change | induced an increase of PICALM protein expression | no significant change | 49.0 | 45.2 |  |  |  |
| tumor necrosis factor-α [TNF-α] |  | 61.8 | 66.3 | 68.1 | 139.4 | not significantly different |  |  | 57.3 | 38.1 | 50.9 | no significant change | did not affect PICALM protein expression | no significant change | 73.4 | 41.9 | not significantly different | not significantly different | 40.2 |
